Reference: patent US9765075B2, “Substituted bridged urea analogs as sirtuin modulators” (GLAXOSMITHKLINE LLC, priority 2013, dated 2017)

These molecules were tested against T1, SIRT1 (Homo sapiens, UniProt Q96EB6) (assay: Trp mass spectrometry assay (SIRT1 activation)). Conditions: Trp mass spectrometry assay; EC1.5 = concentration giving 150% activation of SIRT1.
T1 sequence (Q96EB6 1-747): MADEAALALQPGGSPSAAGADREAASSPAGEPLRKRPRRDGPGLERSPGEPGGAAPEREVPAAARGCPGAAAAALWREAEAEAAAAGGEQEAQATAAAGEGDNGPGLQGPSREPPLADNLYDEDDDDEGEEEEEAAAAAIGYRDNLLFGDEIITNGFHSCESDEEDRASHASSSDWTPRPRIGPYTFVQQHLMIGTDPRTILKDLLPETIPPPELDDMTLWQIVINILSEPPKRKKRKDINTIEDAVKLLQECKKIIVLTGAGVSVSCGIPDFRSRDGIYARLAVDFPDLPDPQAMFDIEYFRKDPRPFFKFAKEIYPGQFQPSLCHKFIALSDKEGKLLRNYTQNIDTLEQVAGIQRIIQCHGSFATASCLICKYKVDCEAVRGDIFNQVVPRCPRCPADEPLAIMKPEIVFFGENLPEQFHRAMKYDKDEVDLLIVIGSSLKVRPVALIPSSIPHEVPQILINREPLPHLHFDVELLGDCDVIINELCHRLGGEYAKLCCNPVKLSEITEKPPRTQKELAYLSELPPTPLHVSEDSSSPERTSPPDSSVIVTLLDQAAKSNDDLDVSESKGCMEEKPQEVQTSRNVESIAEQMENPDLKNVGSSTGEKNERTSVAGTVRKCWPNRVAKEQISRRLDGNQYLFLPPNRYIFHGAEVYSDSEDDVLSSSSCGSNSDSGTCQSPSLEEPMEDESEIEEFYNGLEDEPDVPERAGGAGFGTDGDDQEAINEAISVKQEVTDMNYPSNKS
Assay type: biochemical
Excerpt: Mass spectrometry based assays were used to identify modulators of SIRT1 activity. […] The peptide was labeled with the fluorophore 5TMR (excitation 540 nm/emission 580 nm) at the C-terminus. The sequence of the peptide substrate was based on p53 with several modifications. In addition, the methionine residue naturally present in the sequence was replaced with the norleucine because the methionine may be susceptible to oxidation during synthesis and purification. The Trp based assay utilized a peptide having an amino acid residues as follows: Ac-R-H-K-K(Ac)-W-NH2 (SEQ ID NO: 2).
The Trp mass spectrometry assay was conducted as follows. 0.5 μM peptide substrate and 120 μM βNAD^+ were incubated with 10 nM SIRT1 for 25 minutes at 25° C. in a reaction buffer (50 mM HEPES pH 7.5, […] NaCl, 1 mM DTT, 0.05% BSA). The SIRT1 protein was obtained by cloning the SirT1 gene into a T7-promoter containing vector, which was then expressed in BL21(DE3) bacterial cells and purified as described in further detail below. Test compound was added at varying concentrations to this reaction mixture and the resulting reactions were monitored. After the 25 minute incubation with SIRT1, 10 μL of 10% formic acid was added to stop the reaction. The resulting reactions were sealed and frozen for later mass spec analysis. The relative SIRT1 activity was then determined by measuring the amount of 0-acetyl-ADP-ribose (OAADPR) formed (or, alternatively, the amount of deacetylated Trp peptide generated) by the NAD-dependent sirtuin deacetylation reaction in the presence of varying concentrations of the test compound versus control reactions lacking the test compound. The degree to which the test agent activated deacetylation by SIRT1 was expressed as EC1.5 (i.e., the concentration of compound required to increase SIRT1 activity by 50% over the control lacking test compound), and Percent Maximum Activation (i.e., the maximum activity relative to control (100%) obtained for the test compound).
A control for activation of sirtuin activity was conducted using 10 nM of sirtuin protein, with 1 μL of DMSO in place of compound, to determine the amount of deacetylation of the substrate at a given time point within the linear range of the assay. This time point was the same as that used for test compounds and, within the linear range, the endpoint represents a change in velocity.
For the above assay, SIRT1 protein was expressed and purified as follows. The SirT1 gene was cloned into a T7-promoter containing vector and transformed into BL21(DE3). The protein was expressed by induction with 1 mM IPTG as an N-terminal His-tag fusion protein at 18° C. overnight and harvested at 30,000×g. Cells were lysed with lysozyme in lysis buffer (50 mM Tris-HCl, 2 mM Tris[2-carboxyethyl] phosphine (TCEP), 10 μM ZnCl2, 200 mM NaCl) and further treated with sonication for 10 min for complete lysis. The protein was purified over a Ni-NTA column (Amersham) and fractions containing pure protein were pooled, concentrated and run over a sizing column (Sephadex S200 26/60 global). The peak containing soluble protein was collected and run on an Ion-exchange column (MonoQ). Gradient elution (200 mM-500 mM NaCl) yielded pure protein. This protein was concentrated and dialyzed against dialysis buffer (20 mM Iris-HCl, 2 mM TCEP) overnight. The protein was aliquoted and frozen at −80° C. until further use.

Row | Tryp AVG EC1.5 (μM) | Compound
1 | A (EC1.5<1 μM) | O=C(Nc1ccccn1)N1c2nc(-c3cccc(C(F)(F)F)c3)ccc2N2CC[C@H]1C2 [816 (7)]

Same assay, conditions: Trp mass spectrometry assay; EC1.5 = concentration of test compound that results in 150% activation of SIRT1

Row | Tryp AVG EC1.5 (μM) | Compound
2 | A (EC1.5<1 μM) | O=C(Nc1cccc(-c2cnco2)c1)N1c2nc(-c3cccc(C(F)(F)F)c3)ccc2N2CC[C@H]1C2 [68 (1)]
3 | A (EC1.5<1 μM) | Cc1cnc2c(NC(=O)N3c4nc(-c5cccc(C(F)(F)F)c5)ccc4N4CC[C@H]3C4)cccc2n1 [76 (8)]
4 | A (EC1.5<1 μM) | CCn1ncc2c(NC(=O)N3c4nc(-c5cccc(C(F)(F)F)c5)ccc4N4CC[C@H]3C4)cccc21 [81 (9)]
5 | B (EC1.5 1-25 μM) | Cc1cc(OCC(O)CO)nc(NC(=O)N2c3nc(-c4cccc(C(F)(F)F)c4)ccc3N3CC[C@H]2C3)n1 (stereo partly shown) [Example 26]

Same assay, conditions: Trp mass spectrometry assay; percent maximum fold activation of SIRT1; read-out: Tryp % Fold Act

Row | Emax | Compound
6 | ≥ 150% | O=C(Nc1cnccn1)N1c2nc(-c3cccc(C(F)(F)F)c3)ccc2N2CC[C@H]1C2 [Example 10]
7 | ≥ 150% | O=C(Nc1ccncn1)N1c2nc(-c3cccc(C(F)(F)F)c3)ccc2N2CC[C@H]1C2 [Example 12]
8 | ≥ 150% | O=C(Nc1cccnc1)N1c2nc(-c3cccc(C(F)(F)F)c3)ccc2N2CC[C@H]1C2 [Example 17]
9 | ≥ 150% | O=C(Nc1cncc(F)c1)N1c2nc(-c3cccc(C(F)(F)F)c3)ccc2N2CC[C@H]1C2 [Example 20]
10 | ≥ 150% | O=C(Nc1cncnc1)N1c2nc(-c3cccc(C(F)(F)F)c3)ccc2N2CC[C@H]1C2 [Example 23]
11 | ≥ 150% | O=C(Nc1cnccn1)N1c2nc(-c3cccc(C(F)(F)F)c3)ccc2N2CCC[C@H]1C2 [Example 27]
12 | ≥ 150% | O=C(Nc1cccnn1)N1c2nc(-c3cccc(C(F)(F)F)c3)ccc2N2CCC[C@H]1C2 [Example 28]
13 | ≥ 150% | O=C(Nc1ccncn1)N1c2nc(-c3cccc(C(F)(F)F)c3)ccc2N2CCC[C@H]1C2 [Example 29]
14 | ≥ 150% | Cn1ccc(NC(=O)N2c3nc(-c4cccc(C(F)(F)F)c4)ccc3N3CCC[C@H]2C3)n1 [Example 36]
15 | ≥ 150% | Cc1cnccc1NC(=O)N1c2nc(-c3cccc(C(F)(F)F)c3)ccc2N2CCC[C@H]1C2 [Example 37]
16 | ≥ 150% | O=C(Nc1cncnc1)N1c2nc(-c3cccc(C(F)(F)F)c3)ccc2N2CCC[C@H]1C2 [Example 38]
17 | ≥ 150% | O=C(Nc1ccc(F)cn1)N1c2nc(-c3cccc(C(F)(F)F)c3)ccc2N2CCC[C@H]1C2 [Example 39]
18 | ≥ 150% | Cn1cc(NC(=O)N2c3nc(-c4cccc(C(F)(F)F)c4)ccc3N3CCC[C@H]2C3)cn1 [Example 40]
19 | ≥ 150% | O=C(Nc1ccncc1F)N1c2nc(-c3cccc(C(F)(F)F)c3)ccc2N2CCC[C@H]1C2 [Example 42]
20 | ≥ 150% | O=C(Nc1cncc(F)c1)N1c2nc(-c3cccc(C(F)(F)F)c3)ccc2N2CCC[C@H]1C2 [Example 45]

Further lines, the molecule ahead of its results:

Row | Compound | Emax
21 | O=C(Nc1cccc(-c2cnco2)c1)N1c2nc(-c3cccc(C(F)(F)F)c3)ccc2N2CC[C@H]1C2 [68 (1)] | ≥ 150%
22 | Cc1cnc2c(NC(=O)N3c4nc(-c5cccc(C(F)(F)F)c5)ccc4N4CC[C@H]3C4)cccc2n1 [76 (8)] | ≥ 150%
23 | CCn1ncc2c(NC(=O)N3c4nc(-c5cccc(C(F)(F)F)c5)ccc4N4CC[C@H]3C4)cccc21 [81 (9)] | ≥ 150%
24 | O=C(Nc1ccccn1)N1c2nc(-c3cccc(C(F)(F)F)c3)ccc2N2CC[C@H]1C2 [816 (7)] | ≥ 150%
25 | O=C(Nc1cccnn1)N1c2nc(-c3cccc(C(F)(F)F)c3)ccc2N2CC[C@H]1C2 [Example 11] | ≥ 150%
26 | Cc1cc(C)nc(NC(=O)N2c3nc(-c4cccc(C(F)(F)F)c4)ccc3N3CC[C@H]2C3)c1 [Example 13] | ≥ 150%
27 | Cc1cccnc1NC(=O)N1c2nc(-c3cccc(C(F)(F)F)c3)ccc2N2CC[C@H]1C2 [Example 14] | < 150%
28 | O=C(Nc1ccncc1F)N1c2nc(-c3cccc(C(F)(F)F)c3)ccc2N2CC[C@H]1C2 [Example 15] | ≥ 150%
29 | O=C(Nc1ccnc(O[C@H]2CCOC2)n1)N1c2nc(-c3cccc(C(F)(F)F)c3)ccc2N2CC[C@H]1C2 [Example 16] | ≥ 150%
30 | O=C(Nc1cnc(OC[C@H](O)CO)cn1)N1c2nc(-c3cccc(C(F)(F)F)c3)ccc2N2CC[C@H]1C2 [Example 18] | ≥ 150%
31 | O=C(Nc1ccccn1)N1c2nc(-c3cccc(Cl)c3)ccc2N2CC[C@H]1C2 [Example 19] | ≥ 150%
32 | Cc1cnccc1NC(=O)N1c2nc(-c3cccc(C(F)(F)F)c3)ccc2N2CC[C@H]1C2 [Example 21] | ≥ 150%
33 | COc1cc(NC(=O)N2c3nc(-c4cccc(C(F)(F)F)c4)ccc3N3CC[C@H]2C3)nc(OC)n1 [Example 22] | ≥ 150%
34 | O=C(Nc1ccncc1F)N1c2nc(-c3cccc(Cl)c3)ccc2N2CC[C@H]1C2 [Example 24] | ≥ 150%
35 | Cn1ccc(NC(=O)N2c3nc(-c4cccc(C(F)(F)F)c4)ccc3N3CC[C@H]2C3)n1 [Example 25] | ≥ 150%
36 | Cc1cc(OCC(O)CO)nc(NC(=O)N2c3nc(-c4cccc(C(F)(F)F)c4)ccc3N3CC[C@H]2C3)n1 (stereo partly shown) [Example 26] | ≥ 150%
37 | Cc1cc(C)nc(NC(=O)N2c3nc(-c4cccc(C(F)(F)F)c4)ccc3N3CCC[C@H]2C3)c1 [Example 30] | ≥ 150%
38 | COc1cc(NC(=O)N2c3nc(-c4cccc(C(F)(F)F)c4)ccc3N3CCC[C@H]2C3)nc(OC)n1 [Example 31] | ≥ 150%
39 | COc1nccc(NC(=O)N2c3nc(-c4cccc(C(F)(F)F)c4)ccc3N3CCC[C@H]2C3)n1 [Example 32] | ≥ 150%
40 | Cc1nc(NC(=O)N2c3nc(-c4cccc(C(F)(F)F)c4)ccc3N3CCC[C@H]2C3)sc1C [Example 33] | ≥ 150%
41 | COc1cc(NC(=O)N2c3nc(-c4cccc(C(F)(F)F)c4)ccc3N3CC[C@H]2C3)ncn1 [Example 34] | ≥ 150%
42 | Cc1cccnc1NC(=O)N1c2nc(-c3cccc(C(F)(F)F)c3)ccc2N2CCC[C@H]1C2 [Example 35] | ≥ 150%
43 | COc1cc(NC(=O)N2c3nc(-c4cccc(C(F)(F)F)c4)ccc3N3CCC[C@H]2C3)ncn1 [Example 41] | ≥ 150%
44 | O=C(Nc1ccc(F)cn1)N1c2nc(-c3cccc(Cl)c3)ccc2N2CC[C@H]1C2 [Example 43] | ≥ 150%
45 | Cc1cnccc1NC(=O)N1c2nc(-c3cccc(Cl)c3)ccc2N2CC[C@H]1C2 [Example 44] | ≥ 150%
46 | O=C(Nc1ccc(F)cn1)N1c2nc(-c3cccc(C(F)(F)F)c3)ccc2N2CC[C@H]1C2 [Example 46] | ≥ 150%
47 | COc1nccc(NC(=O)N2c3nc(-c4cccc(C(F)(F)F)c4)ccc3N3CC[C@H]2C3)n1 [Example 47] | ≥ 150%

Same assay, conditions: concentration of test compound that results in 150% activation of SIRT1; Trp peptide substrate

Row | Tryp AVG EC1.5 (μM) | Compound
48 | A (EC1.5<1 μM) | O=C(Nc1cccnc1)N1c2nc(-c3cccc(C(F)(F)F)c3)ccc2N2CCC[C@H]1C2 [314 (5)]
49 | A (EC1.5<1 μM) | NCc1ccc(NC(=O)N2c3nc(-c4cccc(C(F)(F)F)c4)ccc3N3CCC[C@H]2C3)cc1 [444 (4)]
50 | B (EC1.5 1-25 μM) | O=C(CCCCCNC(=O)c1ccc(-c2c3ccc(=O)cc-3oc3cc(O)ccc23)c(C(=O)O)c1)NCc1ccc(NC(=O)N2c3nc(-c4cccc(C(F)(F)F)c4)ccc3N3CCC[C@H]2C3)cc1 [546 (3)]
51 | A (EC1.5<1 μM) | COc1cc(NC(=O)N2c3nc(-c4cncc(C)c4)ccc3N3CCC[C@H]2C3)ncn1 [EX-527, reference compound]

Same assay, conditions: percent maximum fold activation of SIRT1; Trp peptide substrate; read-out: Tryp % Fold Act

Row | Emax | Compound
52 | ≥ 150% | O=C(Nc1cccnc1)N1c2nc(-c3cccc(C(F)(F)F)c3)ccc2N2CCC[C@H]1C2 [314 (5)]
53 | ≥ 150% | NCc1ccc(NC(=O)N2c3nc(-c4cccc(C(F)(F)F)c4)ccc3N3CCC[C@H]2C3)cc1 [444 (4)]
54 | < 150% | O=C(CCCCCNC(=O)c1ccc(-c2c3ccc(=O)cc-3oc3cc(O)ccc23)c(C(=O)O)c1)NCc1ccc(NC(=O)N2c3nc(-c4cccc(C(F)(F)F)c4)ccc3N3CCC[C@H]2C3)cc1 [546 (3)]
55 | ≥ 150% | COc1cc(NC(=O)N2c3nc(-c4cncc(C)c4)ccc3N3CCC[C@H]2C3)ncn1 [EX-527, reference compound]
